Measurements reported in PubChem BioAssay (NCI).
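Cultured in 96-well plates, cells were exposed to test compound for 48 hours across five concentrations. TGI denotes the concentration required for complete inhibition of growth.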

Tests used:
Assay in all cases: growth of human tumour cells (NCI), 48 h
MCF7 breast = test system: MCF7 breast
MDA-MB-231 breast = test system: MDA-MB-231 breast
SF-539 CNS = test system: SF-539 CNS
NCI-H522 lung = test system: NCI-H522 lung
UACC-62 melanoma = test system: UACC-62 melanoma
NCI/ADR-RES ovarian = test system: NCI/ADR-RES ovarian
UACC-257 melanoma = test system: UACC-257 melanoma
HCT-116 colon = test system: HCT-116 colon
EKVX NSCLC = test system: EKVX NSCLC
LOX IMVI melanoma = test system: LOX IMVI melanoma
U251 CNS = test system: U251 CNS
T-47D breast = test system: T-47D breast
786-0 renal = test system: 786-0 renal
MALME-3M melanoma = test system: MALME-3M melanoma
OVCAR-8 ovarian = test system: OVCAR-8 ovarian
HOP-62 NSCLC = test system: HOP-62 NSCLC
SF-268 CNS = test system: SF-268 CNS
HCT-15 colon = test system: HCT-15 colon
MDA-N = test system: MDA-N
IGROV1 ovarian = test system: IGROV1 ovarian

Row | Compound | TGI (MCF7 breast) | TGI (MDA-MB-231 breast) | TGI (SF-539 CNS) | TGI (NCI-H522 lung) | TGI (UACC-62 melanoma) | TGI (NCI/ADR-RES ovarian) | TGI (UACC-257 melanoma) | TGI (HCT-116 colon) | TGI (EKVX NSCLC) | TGI (LOX IMVI melanoma) | TGI (U251 CNS) | TGI (T-47D breast) | TGI (786-0 renal) | TGI (MALME-3M melanoma) | TGI (OVCAR-8 ovarian) | TGI (HOP-62 NSCLC) | TGI (SF-268 CNS) | TGI (HCT-15 colon) | TGI (MDA-N) | TGI (IGROV1 ovarian)
1 | C=C1[C@H](OC(=O)C(C)C)[C@]23CC4(O)[C@@H]5[C@@]6(C)CCC[C@]57C([C@@H]2C[C@@]1(O)[C@H](O)[C@@H]73)N4C6 | > 100 µM | > 100 µM | > 100 µM | > 100 µM | > 100 µM | > 100 µM | > 100 µM | > 100 µM | > 100 µM | > 100 µM | > 100 µM | > 100 µM | > 100 µM | > 100 µM | > 100 µM | > 100 µM | > 100 µM | > 100 µM | > 100 µM | > 100 µM
2 | COc1cc(OC)cc(OCc2ccc3nc(-c4ccccc4)c(Cl)nc3c2)c1 | > 100 µM | 30.5 µM | 49.9 µM | 20.3 µM | > 100 µM | 67.8 µM | > 100 µM | > 100 µM | > 100 µM | > 100 µM | 59.9 µM | > 100 µM | 28.3 µM | 32.7 µM | 95.9 µM | 33.8 µM | > 100 µM | > 100 µM | > 100 µM | 66.4 µM
3 | N#CC1Cc2cc3c(cc21)OCO3 (stereo not drawn) | > 100 µM | > 100 µM | > 100 µM | – | > 100 µM | > 100 µM | > 100 µM | > 100 µM | > 100 µM | > 100 µM | > 100 µM | > 100 µM | > 100 µM | > 100 µM | > 100 µM | > 100 µM | – | > 100 µM | > 100 µM | > 100 µM
4 | CC(C)(C)OC(=O)CC(NC(=O)OC(C)(C)C)C(=O)N[C@@H]1CCCC[C@H]1C(=O)OCc1ccccc1 (stereo partly drawn) | 85.5 µM | > 100 µM | 64 µM | – | 60.8 µM | > 100 µM | 89.4 µM | 52.5 µM | > 100 µM | > 100 µM | 61.4 µM | 59.3 µM | > 100 µM | > 100 µM | > 100 µM | > 100 µM | > 100 µM | 39.4 µM | > 100 µM | > 100 µM
5 | CC(=O)N1CN2C(=O)CCC2c2ccccc21 (stereo not drawn) | > 100 µM | > 100 µM | > 100 µM | > 100 µM | > 100 µM | > 100 µM | > 100 µM | > 100 µM | > 100 µM | > 100 µM | > 100 µM | > 100 µM | > 100 µM | > 100 µM | > 100 µM | > 100 µM | > 100 µM | > 100 µM | > 100 µM | > 100 µM
6 | COCO[C@@H]1C[C@H]2C(=O)N(COC)c3ccccc3C(=O)N2C1 | > 100 µM | > 100 µM | > 100 µM | > 100 µM | > 100 µM | > 100 µM | > 100 µM | > 100 µM | > 100 µM | > 100 µM | > 100 µM | > 100 µM | > 100 µM | > 100 µM | > 100 µM | > 100 µM | > 100 µM | > 100 µM | > 100 µM | > 100 µM
7 | CN(C)c1ccc(/C=C(\NC(=O)c2ccccc2)C(=O)NCC(=O)O)cc1 | > 100 µM | > 100 µM | > 100 µM | > 100 µM | > 100 µM | > 100 µM | > 100 µM | > 100 µM | > 100 µM | > 100 µM | > 100 µM | > 100 µM | > 100 µM | > 100 µM | > 100 µM | > 100 µM | > 100 µM | > 100 µM | > 100 µM | > 100 µM
8 | C=CCOC(=O)Cn1cc(C)c(=O)[nH]c1=O | > 100 µM | > 100 µM | > 100 µM | – | > 100 µM | > 100 µM | > 100 µM | > 100 µM | > 100 µM | > 100 µM | > 100 µM | > 100 µM | > 100 µM | > 100 µM | > 100 µM | > 100 µM | > 100 µM | > 100 µM | > 100 µM | > 100 µM
9 | S=c1nc(Cc2ccc(Cl)cc2)[nH][nH]1 | > 100 µM | > 100 µM | > 100 µM | – | > 100 µM | > 100 µM | > 100 µM | > 100 µM | > 100 µM | > 100 µM | > 100 µM | 99.6 µM | > 100 µM | > 100 µM | > 100 µM | > 100 µM | – | > 100 µM | > 100 µM | > 100 µM
10 | COC(=O)C1=C(C(=O)OC)C(Cc2ccccc2)(OO)OC1=O (stereo not drawn) | 53.9 µM | > 100 µM | 17.1 µM | 6.71 µM | 15.5 µM | > 100 µM | > 100 µM | > 100 µM | 37.3 µM | 22.8 µM | 67.9 µM | > 100 µM | > 100 µM | 24.5 µM | > 100 µM | – | – | 16 µM | > 100 µM | 24.5 µM
11 | COc1cc(/C=C2/SC(c3ccccc3)N(c3cccc(Cl)c3)C2=O)cc(OC)c1OC (stereo not drawn) | > 100 µM | > 100 µM | 43 µM | 26.2 µM | > 100 µM | 73.9 µM | > 100 µM | 34.8 µM | > 100 µM | 35.1 µM | 86.8 µM | > 100 µM | 36.4 µM | 96.5 µM | 59.6 µM | > 100 µM | > 100 µM | > 100 µM | 43.2 µM | –
12 | COc1cc2c(c(O)c1OC)C(O)C1CCC(=O)N1C2c1cccc2ccccc12 (stereo not drawn) | > 100 µM | > 100 µM | > 100 µM | > 100 µM | > 100 µM | > 100 µM | > 100 µM | > 100 µM | > 100 µM | – | > 100 µM | > 100 µM | > 100 µM | > 100 µM | > 100 µM | > 100 µM | > 100 µM | > 100 µM | > 100 µM | > 100 µM
13 | CCCN1CC=C(c2cc(C(=O)OCC)[nH]c2-c2cc(C)no2)C1=O | > 100 µM | > 100 µM | > 100 µM | – | > 100 µM | > 100 µM | > 100 µM | > 100 µM | > 100 µM | > 100 µM | > 100 µM | > 100 µM | > 100 µM | > 100 µM | > 100 µM | > 100 µM | > 100 µM | > 100 µM | > 100 µM | > 100 µM
14 | COC(=O)c1cc2c3c(cc(N(C)C)c2[nH]1)N(C(=O)c1cc2cc(OC)c(OC)c(OC)c2[nH]1)CC3CCl (stereo not drawn) | 2.42 µM | 0.0132 µM | – | 0.0113 µM | 0.0565 µM | 0.0548 µM | – | < 0.0025 µM | 2.79 µM | – | – | 0.642 µM | 0.00487 µM | < 0.0025 µM | – | 0.00774 µM | 0.127 µM | 19.2 µM | < 0.0025 µM | –
15 | Cc1n[nH]c(=O)n1C1CCCC1 | > 100 µM | > 100 µM | > 100 µM | > 100 µM | – | > 100 µM | > 100 µM | > 100 µM | > 100 µM | > 100 µM | > 100 µM | > 100 µM | > 100 µM | > 100 µM | > 100 µM | > 100 µM | > 100 µM | > 100 µM | > 100 µM | > 100 µM
16 | CC(C)c1nc2cc(C(F)(F)F)ccc2[nH]c1=O | > 100 µM | > 100 µM | > 100 µM | > 100 µM | > 100 µM | > 100 µM | > 100 µM | > 100 µM | > 100 µM | – | > 100 µM | > 100 µM | > 100 µM | > 100 µM | > 100 µM | > 100 µM | > 100 µM | > 100 µM | > 100 µM | > 100 µM
17 | O=C(NCCCCN(CCCNC(=O)C(F)(F)F)Cc1ccc2ccccc2c1)C(F)(F)F | 27.8 µM | 31.1 µM | 29.8 µM | 36.7 µM | 37 µM | 32.7 µM | 33.9 µM | 33.9 µM | 35.8 µM | 32.7 µM | 67.2 µM | 40.2 µM | 30.6 µM | 29.1 µM | 36.1 µM | – | 31.9 µM | 31.1 µM | 31.6 µM | 32.9 µM
18 | COc1ccc(N(CN2C(=O)CCC2C(=O)O)C(C)=O)cc1 (stereo not drawn) | > 100 µM | > 100 µM | > 100 µM | > 100 µM | > 100 µM | > 100 µM | > 100 µM | > 100 µM | > 100 µM | > 100 µM | > 100 µM | > 100 µM | > 100 µM | > 100 µM | > 100 µM | > 100 µM | > 100 µM | > 100 µM | > 100 µM | –
19 | C1=Nc2ccc(cc2)N=Cc2ccc(cc2)OCc2cccc(n2)COc2ccc1cc2 | > 100 µM | > 100 µM | > 100 µM | > 100 µM | > 100 µM | > 100 µM | > 100 µM | > 100 µM | > 100 µM | – | > 100 µM | > 100 µM | > 100 µM | > 100 µM | > 100 µM | > 100 µM | > 100 µM | > 100 µM | > 100 µM | > 100 µM
